Results published in patent publication US11603355B2, “Charged ion channel blockers and methods for use” (Nocion Therapeutics, Inc., priority 2019, dated 2023).
Where a name gives a salt, the structure may show the parent alone.

Tests used:
NaV1.7 [1] = target: T1, NaV1.7 (Homo sapiens, UniProt Q15858); experiment: Automated patch clamp (Qube 384), internal block of NaV1.7; format: cell-based; conditions: IC50, compound in internal solution, HEK293 cells, read-out: Nav1.7 Intracellular Inhibition
T1 construct: expressed in transfected cells; host or cells: HEK293 (tetracycline-inducible)
Method: (§1) NaV1.7 was expressed in HEK293 cells upon induction with tetracycline. Cells were cultured in DMEM containing 10% dialyzed Fetal Bovine Serum (VWR, Radnor, Pa.), 1% Glutamax (VWR, Radnor, Pa.), 1% Penicillin-Streptomycin (VWR, Radnor, Pa.), 100 mg/L Hygromycin (Thermo Fisher Scientific, Waltham, Mass. and 5 mg/L Blasticidin (Alfa Aesar, Haverhill, Mass.). Cells were grown and maintained at 37° C. in a humidified environment containing 10% CO2 in air. Cells were detached from the culture flask for passage and harvested using 0.05% Trypsin-EDTA (Thermo Fisher Scientific, Waltham, Mass.). To induce NaV1.7, cells were induced with tetracycline (0.1-1 μg/mL, IBI Scientific, Peosta, Iowa) the day before recording.
(§2) Before experiments, cells were washed with DPBS (VWR, Radnor, Pa.), digested with Detachin (VWR Radnor, Pa.) and then triturated 10 times in CHO Serum-Free Media (VWR Radnor, Pa.) to resuspend the cells and to break apart cell aggregates. Cells were counted and the final concentration was set at 2-5 million cells per mL.
(§3) The intracellular solution contained the following: 140 mM CsF, 1 mM/5 mM EGTA/CsOH, 10 mM HEPES, 10 mM NaCl, adjusted to pH 7.3 with CsOH, and osmolality to 320 with OSM solution. The external solution contained the following: 145 mM NaCl, 4 mM KCl, 1 mM MgCl2, 2 mM CaCl2), 10 mM HEPES, 10 mM Glucose, adjusted to pH 7.4 with CsOH and osmolality to 305 with OSM solution. The OSM solution was a normal Ringer solution containing (in mM) NaCl 155, HEPES 10, sucrose, KCl 3.5, CaCl2) 1.5, MgCl2 1 adjusted to pH 7.4 with NaOH. All chemicals are from Sigma-Aldrich, St. Louis, Mo. In order to test the degree of internal block by test compounds, the compounds were dissolved in internal solution at the indicated test concentration. […] In order to test the degree of external block by test compounds the compounds were dissolved in external solution at the indicated test concentration.
(§4) Automated Patch Clamps were performed on Qube 384 (Sophion Bioscience, Woburn Mass.) with multihole Qchips at a temperature setting of 22 degrees. The whole cells configuration was formed with default Qube seal and break-in parameter. The membrane potential was held at −100 mV before the voltage protocol began. Two voltage protocols were followed.
(§5) Step 1: Cells were held at −100 mV with a depolarized pulse to −20 mV for 10 ms, the interval was set at 5 s. Currents were corrected by default leak subtraction from every pulse. The duration was set at 5 mins.
(§6) Step 2: Cells were held at −100 mV with a depolarized pulse to −20 mV for 10 ms. The frequency was 5 Hz. Currents were corrected by leak subtraction calculated before step 2. The duration was set at 4 mins.
After Step 2, the Qchip was removed from the recording chamber. The internal solution was changed with solutions containing test compounds. Qchips were held at −100 mV without pulsing after being replaced in the recording chamber. The total solution switching time was 8 minutes. After the internal solution exchange, Cells were recorded and step 2 for repeated for 10 minutes.
Data analysis was performed by Sophion Analyzer. Cells were filtered with minimum 50 MOhm seal resistance and minimum 5 nA starting current. The rundown of the currents was corrected with control cells (Non-Drug). The remaining was calculated by averaging last 3 points in the end of experiments. The base line was calculated as the average of last 3 points of Step 2.
IC50 curves were plotted with DR-plots/Hill function (a dose-response plot with a Hill fit).
Representative examples of the invention were tested for intracellular inhibition of NaV 1.7 in the automated patch clamp assay. Activity Range is reported as IC50: “++++” (<0.3 μM), “+++” (0.3-1 μM), “++” (1-3 μM) or “+” (3-10 μM).

NaV1.7 [2] = target: T1, NaV1.7; experiment: Automated patch clamp (Qube 384), external block of NaV1.7; format: cell-based; conditions: IC50, compound in external solution, HEK293 cells, read-out: Nav1.7 Extracellular Inhibition
Method: as §1, §2, §3, §4, §5, §6
After Step 2, the external solution was changed with solutions containing test compounds. Qchips were held at −100 mV without pulsing. The total solution switching time was 8 minutes. After the external solution exchange, cells were recorded using the same procedure as step 2 for 10 minutes.
Data analysis was performed by Sophion Analyzer. Data were corrected with control cells (Non-Drug). The IC50 data were plotted with DR-plots/Hill function (a dose-response plot with a Hill fit). Representative examples of the invention were tested for extracellular inhibition of NaV 1.7 in the automated patch clamp assay. Activity Range is reported as IC50: “++++” ([…], “+++” (1-3 μM), “++” ([…]) or “+” (>10 μM). The results are presented below.

[3] = PAMPA membrane permeability assay; format: in vitro ADME; conditions: permeability coefficient, pH 7.4 buffer, GIT lipid, 4 hours incubation
Method: The PAMPA assay (pION, Inc., Woburn Mass.) was used to determine the ability of compounds of the invention to cross an artificial lipid membrane by passive diffusion. Test compounds were dissolved in DMSO (10 mM) and diluted 200-fold in buffer (pION Inc., pH 7.4) to provide 50 uM stock solutions. Buffer (150 μL) was added to a UV blank plate and stock solutions (150 μL) were transferred to a UV reference plate. The blank and reference spectrum were read using a spectrophotometer. Stock solutions (200 μL) were added to the donor plate of the PAMPA sandwich plate and an accept plate painted with GIT lipid (pION Inc, 5) was placed on top. Buffer (200 μL) was added to the acceptor plate and the PAMPA sandwich plate was incubated for 4 hours. Aliquots (150 μL) from the acceptor plate were added to a UV plate and read as acceptor spectrum. Aliquots (150 μL) of the donor solutions were added to a UV analysis plate and read as donor spectrum. The permeability coefficient of test compounds was calculated using PAMPA Explorer™ software (version 3.5.0.4) based on the AUC of the reference plate, the donor plate, and the acceptor plate.
The PAMPA permeability results (10^−6 cm/s) of representative compounds are reported as “+” (<0.1 10^−6 cm/s), “++” (0.1-2.0 10^−6 cm/s), “+++” (2.0-10.010^−6 cm/s) or “++++” (>10.0 10^−6 cm/s).

T1 sequence (Q15858 whole entry): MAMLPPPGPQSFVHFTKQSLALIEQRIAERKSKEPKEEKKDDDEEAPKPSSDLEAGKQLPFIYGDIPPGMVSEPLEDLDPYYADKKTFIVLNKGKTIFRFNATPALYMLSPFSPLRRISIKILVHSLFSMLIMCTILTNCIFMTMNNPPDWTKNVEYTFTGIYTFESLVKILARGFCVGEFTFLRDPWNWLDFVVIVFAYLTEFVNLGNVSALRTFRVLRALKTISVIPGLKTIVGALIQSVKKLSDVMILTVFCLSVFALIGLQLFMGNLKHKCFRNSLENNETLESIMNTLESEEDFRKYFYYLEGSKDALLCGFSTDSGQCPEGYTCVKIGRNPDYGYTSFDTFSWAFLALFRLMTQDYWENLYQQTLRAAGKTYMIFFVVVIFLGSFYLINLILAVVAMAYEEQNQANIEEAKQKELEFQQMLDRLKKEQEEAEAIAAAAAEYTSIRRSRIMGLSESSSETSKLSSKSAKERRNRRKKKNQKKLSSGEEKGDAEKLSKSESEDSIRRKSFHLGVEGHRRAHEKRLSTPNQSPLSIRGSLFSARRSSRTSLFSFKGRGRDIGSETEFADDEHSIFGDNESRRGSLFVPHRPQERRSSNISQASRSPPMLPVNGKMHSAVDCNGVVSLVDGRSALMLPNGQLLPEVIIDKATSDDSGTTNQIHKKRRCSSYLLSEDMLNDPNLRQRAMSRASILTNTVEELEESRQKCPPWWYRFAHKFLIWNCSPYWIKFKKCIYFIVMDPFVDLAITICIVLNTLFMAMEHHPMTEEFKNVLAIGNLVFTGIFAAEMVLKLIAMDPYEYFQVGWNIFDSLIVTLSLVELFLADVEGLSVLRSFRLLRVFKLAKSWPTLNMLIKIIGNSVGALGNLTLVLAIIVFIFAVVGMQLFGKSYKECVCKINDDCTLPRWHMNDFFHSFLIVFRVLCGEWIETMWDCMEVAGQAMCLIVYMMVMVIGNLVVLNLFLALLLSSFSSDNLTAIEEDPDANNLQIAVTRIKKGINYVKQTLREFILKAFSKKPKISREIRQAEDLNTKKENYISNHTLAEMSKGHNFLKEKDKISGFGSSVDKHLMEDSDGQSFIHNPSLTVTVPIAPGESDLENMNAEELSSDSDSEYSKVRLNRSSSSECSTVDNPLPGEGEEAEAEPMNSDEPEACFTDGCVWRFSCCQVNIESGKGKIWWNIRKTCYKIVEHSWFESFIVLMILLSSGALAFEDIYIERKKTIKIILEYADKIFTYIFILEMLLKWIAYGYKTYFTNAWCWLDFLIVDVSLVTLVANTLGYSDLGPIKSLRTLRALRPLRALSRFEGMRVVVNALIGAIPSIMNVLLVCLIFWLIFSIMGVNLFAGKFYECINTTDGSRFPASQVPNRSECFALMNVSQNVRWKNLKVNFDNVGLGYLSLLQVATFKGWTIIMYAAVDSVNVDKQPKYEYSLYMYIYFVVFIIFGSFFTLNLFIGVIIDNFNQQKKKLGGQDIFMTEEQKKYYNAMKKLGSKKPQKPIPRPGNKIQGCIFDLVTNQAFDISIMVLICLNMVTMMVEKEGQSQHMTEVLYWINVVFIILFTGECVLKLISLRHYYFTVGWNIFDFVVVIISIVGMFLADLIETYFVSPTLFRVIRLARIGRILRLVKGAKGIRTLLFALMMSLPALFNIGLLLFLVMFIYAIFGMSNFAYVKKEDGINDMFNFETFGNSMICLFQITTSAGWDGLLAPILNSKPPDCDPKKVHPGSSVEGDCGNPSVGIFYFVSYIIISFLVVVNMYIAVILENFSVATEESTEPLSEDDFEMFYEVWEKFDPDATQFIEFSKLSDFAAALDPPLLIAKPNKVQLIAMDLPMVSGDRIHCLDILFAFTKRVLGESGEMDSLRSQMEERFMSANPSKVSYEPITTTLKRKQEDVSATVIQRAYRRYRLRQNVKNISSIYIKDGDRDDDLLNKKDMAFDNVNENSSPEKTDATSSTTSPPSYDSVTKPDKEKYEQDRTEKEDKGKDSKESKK

IC50 (NaV1.7 [1])	IC50 (NaV1.7 [2])	PAMPA (10^−6 cm/s) [3]	SMILES
1 to 3 µM	> 10 µM	–	Cc1cccc(C)c1NC(=O)C[N+]1(Cc2ccccc2)CCCC1 [Compound 5]
0.3 to 1 µM	> 10 µM	–	CCC(C(=O)Nc1c(C)cccc1C)[N+]1(Cc2ccccc2)CCCCC1 (centres unmarked) [Compound 6]
1 to 3 µM	3 to 10 µM	+ (“+” (<0.1 10^−6 cm/s))	Cc1cccc(C)c1NC(=O)C[N+]1(Cc2ccccc2)CCCC(C(=O)NCC(C)C)C1.[Br-] (centres unmarked) [Compound 58A]
1 to 3 µM	3 to 10 µM	+ (“+” (<0.1 10^−6 cm/s))	Cc1cccc(C)c1NC(=O)C[N+]1(Cc2ccccc2)CCCC(C(=O)N2CCCCCC2)C1 (centres unmarked) [Compound 64A]
1 to 3 µM	–	+ (“+” (<0.1 10^−6 cm/s))	Cc1cccc(O)c1NC(=O)C[N+]1(Cc2ccccc2)CCCCCC1.[Br-] [Compound 79A, 1-benzyl-1-(2-((2-hydroxy-6-methylphenyl)amino)-2-oxoethyl) azepan-1-ium formate]
0.3 to 1 µM	1 to 3 µM	–	Cc1cccc(C)c1OC(=O)C[N+]1(Cc2ccccc2)CCCCCC1 [Compound 83A, 1-benzyl-1-(2-(2,6-dimethylphenoxy)-2-oxoethyl) azepan-1-ium 2,2,2-trifluoroacetate]
3 to 10 µM	–	+ (“+” (<0.1 10^−6 cm/s))	Cc1cccc(C)c1NCC[N+]1(Cc2ccccc2)CCCCCC1 [Compound 84A, 1-benzyl-1-(2-((2,6-dimethylphenyl)amino)ethyl) azepan-1-ium trifluoroacetate]
3 to 10 µM	> 10 µM	–	CC[N+](CC)(CCS(=O)(=O)c1c(C)cccc1C)Cc1ccccc1 [Compound 87A, N-benzyl-2-((2,6-dimethylphenyl)sulfonyl)-N, N-diethylethan-1-aminium bromide]

More lines, now with the values behind:

SMILES	IC50 (NaV1.7 [1])	IC50 (NaV1.7 [2])	PAMPA (10^−6 cm/s) [3]
Cc1cccc(C)c1NC(=O)C[N+]1(Cc2ccccc2)CCCCC1 [Compound 4]	0.3 to 1 µM	> 10 µM	–
Br.CCCCOC(=O)C1CCC[N+](CC(=O)Nc2c(C)cccc2C)(Cc2ccccc2)C1 (centres unmarked) [Compound 49A]	1 to 3 µM	3 to 10 µM	+ (“+” (<0.1 10^−6 cm/s))
Cc1cccc(C)c1NC(=O)C[N+]1(Cc2ccccc2)CCCC(C(=O)OC2CCCCC2)C1.[Br-] (centres unmarked) [Compound 51A]	3 to 10 µM	3 to 10 µM	+ (“+” (<0.1 10^−6 cm/s))
Cc1cccc(C(=O)N(C)C)c1NC(=O)C[N+]1(Cc2ccccc2)CCCCCC1.[Br-] [Compound 78A]	3 to 10 µM	–	+ (“+” (<0.1 10^−6 cm/s))
Cc1cccc(C)c1S(=O)(=O)CC[N+]1(Cc2ccccc2)CCCCCC1 [Compound 88A, 1-benzyl-1-(2-((2,6-dimethylphenyl)sulfonyl)ethyl) azepan-1-ium bromide]	3 to 10 µM	> 10 µM	–
Cc1cccc(C)c1N1CCCC([N+]2(Cc3ccccc3)CCCCC2)C1=O (centres unmarked) [Compound 92A]	1 to 3 µM	> 10 µM	–
